Source: patent US9408856B2, “Topical steroidal formulations” (Temple University—Of The Commonwealth System of Higher …, priority 2008, dated 2016)
“Also recorded” adds a separate entry of the source.

Legend:
[1] = test system: dexamethasone-induced thymic and splenic atrophy; assay: Dexamethasone-induced thymic and splenic atrophy in mice; assay type: in vivo, CD-1 mice; conditions: for protection against DEX-induced thymic and splenic atrophy: CD-1 mice
Method: Administration of dehydroepiandrosterone (DHEA, 60 mg/kg, s.c.) for three days partially reverse thymic and splenic atrophy induced by a single injection of dexamethasone (1.6 mg/mouse). In this experiment, the efficacy of either 10 mg/kg or 20 mg/kg DHEA administered s.c. versus the effect of 10 mg/kg or 20 mg/kg fluasterone was investigated.
5% Cremophor (polyethoxylated castor oil; Sigma Chemicals)-95% saline vehicle was prepared using 95 mL of sterile 0.9% NaCl (filtered through sterile 0.22 micron filter) and 5 mL of Cremophor. The Cremophor was dissolved by swirling for approximately 5 minutes.
Dexamethasone solutions were prepared by dissolving dexamethasone (Sigma Chemicals) in absolute ethanol. For example, 71.9 mg of dexamethasone was dissolved in 2.9 mL of absolute ethanol. In order to prevent precipitation, the solution was kept on a hotplate between injections.
For the 10 mg/kg suspension, 25.7 mg of DHEA was weighed out, transferred to a glass scintillation vial, and 10.3 mL of the Cremophor-saline vehicle was added. The DHEA suspension was homogenized using a Tissumizer at 80% power for 30 sec. The Tissumizer was rinsed with 70% ethanol prior to homogenization. After the 10 mg/kg DHEA suspension was homogenized the probe was rinsed 2× with 50 mL of absolute ethanol, then with 50 mL of 70% ethanol, and then dried with sterile gauze. For the 20 mg/kg DHEA suspension, 50.9 mg DHEA was suspended in 10.2 mL of Cremophor-saline vehicle.
19.4 mg of fluasterone was weighed out and transferred to a glass scintillation vial. 7.8 mL of Cremophor-saline vehicle was added to the vial and the contents of the vial were homogenized with a Tissumizer as described previously. Prior to preparing the 20 mg/kg fluasterone, the probe was rinsed 2× with 50 mL of absolute ethanol and 1× with 50 mL of 70% ethanol. For the 20 mg/kg suspension, 47.0 mg was weighed out and transferred to a glass scintillation vial. 9.4 mL of Cremophor-saline vehicle was added to the vial and the contents of the vial were homogenized with a Tissumizer as described above.
Female CD-1 mice, 43-45 days old, were obtained from Charles River Laboratories. The mice were housed 5 per cage in plastic shoebox cages with ad libitum access to Purina chow 5015 and water in the Pharmacy CAF with 12 hr of alternating light and darkness.
Prior to the experiment the mice were weighed, separated into 6 groups containing 5 mice each and treated as follows:
Mice were treated s.c. with 0.1 mL of 5% Cremophor-95% saline for three days. On the third day, the mice were also treated s.c. with 1.6 mg of dexamethasone dissolved in 0.06 mL of absolute. ethanol.
Mice were treated s.c. with 0.25 mg of DHEA suspended in 0.1 mL of 5% Cremophor-95% saline for three days. On the third day, the mice were also treated s.c. with 1.6 mg of dexamethasone dissolved in 0.06 mL of absolute ethanol.
Mice were treated s.c. with 0.5 mg of DHEA suspended in 0.1 mL of 5% Cremophor-95% saline for three days. On the third day, the mice were also treated s.c. with 1.6 mg of dexamethasone dissolved in 0.06 mL of absolute ethanol.
Mice were treated s.c. with 0.25 mg of fluasterone suspended in 0.1 mL of 5% Cremophor-95% saline for three days. On the third day, the mice were also treated s.c. with 1.6 mg of dexamethasone dissolved in 0.06 mL of absolute ethanol.
Mice were treated s.c. with 0.5 mg of fluasterone suspended in 0.1 mL of 5% Cremophor-95% saline for three days. On the third day, the mice were also treated s.c. with 1.6 mg of dexamethasone dissolved in 0.06 mL of absolute ethanol.
All s.c. injections were made in the nape. All mice were lightly anesthetized while the s.c. injections were done.
Twenty-four hours after dexamethasone treatment, the mice were euthanized by an overdose of isoflurane. The spleen and thymus were removed, cleaned of any adventitia, rinsed, blotted on filter paper, and weighed. […]

[2] = test system: TPA-promoted skin tumor promotion; conditions: Schwartz et al. Carcinogenesis 10:1809-1813, 1989; cited from earlier work
[3] = test system: TPA-stimulated epidermal hyperplasia in mouse skin; assay: TPA-stimulated epidermal hyperplasia in mouse skin, subcutaneous fluasterone; assay type: in vivo, mice; conditions: subcutaneous injection
Method: In dose-response experiments the anti-hyperplastic efficacy of fluasterone in TPA-treated mouse epidermis to determine bioavailability following different routes of administration was measured. Mice were treated with a single dose of fluasterone (either orally, subcutaneously, or transdermally) followed by a single application of TPA to the shaved back one hour latter. In case of transdermal administration, fluasterone is applied in a topical formulation to the shaved abdomen to allow for systemic absorption to the back of the animal. Twenty hours after TPA application, the mice are injected with 60 μCi of [3H] thymidine, sacrificed 20 minutes later, and a 2×2 cm2 of skin from the shaved back is excised and processed for the determination of the amount of [3H] thymidine incorporated per unit of epidermal DNA. (Hennings et. al., Cancer Res. 28:543-552, 1968).

[4] = Table 12, 10 mg/kg s.c. 3 days + dexamethasone 1.6 mg s.c. on day 3, 24 h after dexamethasone
[5] = Table 12, 20 mg/kg s.c. 3 days + dexamethasone 1.6 mg s.c. on day 3, 24 h after dexamethasone
[6] = Table 14, micronized steroid 10 mg/kg + dexamethasone
[7] = Table 14, micronized steroid 20 mg/kg + dexamethasone
[8] = Table 15, steroid 10 mg/kg in Cremophor-saline + dexamethasone
[9] = Table 16, steroid 5 mg/kg + dexamethasone
[10] = Table 16, steroid 10 mg/kg + dexamethasone

C[C@]12CCCCC1=CC[C@@H]1[C@@H]2CC[C@]2(C)C(=O)[C@H](F)C[C@@H]12 [Fluasterone, 16α-fluoro-5-androsten-17-one]
protection against DEX-induced thymic and splenic atrophy ([1]; 5 mg/kg): significant protection | protection against DEX-induced thymic and splenic atrophy ([1]; 10 mg/kg): highly active; also recorded: as active as DHEA at 60 mg/kg | potency relative to DHEA in protecting against dexamethasone-induced thymic and splenic atrophy ([1]; Example 8, micronized): about 6 × | Body Weight [1, 4]: 24.3 ± 1.0 | Spleen wt [1, 4]: 77.5 ± 14.4 | Spleen wt/BW [1, 4]: 3.2 ± 0.5 | Thymus wt [1, 4]: 60.9 ± 5.2 | Thymus wt/BW [1, 4]: 2.5 ± 0.3 | Body Weight [1, 5]: 25.2 ± 0.6 | Spleen wt [1, 5]: 73.9 ± 13.8 | Spleen wt/BW [1, 5]: 2.9 ± 0.6 | Thymus wt [1, 5]: 60.8 ± 5.3 | Thymus wt/BW [1, 5]: 2.4 ± 0.2 | Body Weight [1, 6]: 26.7 ± 3.6 | Spleen wt [1, 6]: 83.0 ± 6.2 | Spleen wt/BW [1, 6]: 3.1 ± 0.3 | Thymus wt [1, 6]: 68.0 ± 11.5 | Thymus wt/BW [1, 6]: 2.5 ± 0.3 | Body Weight [1, 7]: 27.2 ± 3.1 | Spleen wt [1, 7]: 83.1 ± 7.9 | Spleen wt/BW [1, 7]: 3.1 ± 0.4 | Thymus wt [1, 7]: 66.3 ± 9.0 | Thymus wt/BW [1, 7]: 2.4 ± 0.2 | Body Weight [1, 8]: 24.8 ± 0.8 | Spleen wt [1, 8]: 80.0 ± 7.7 | Spleen wt/BW [1, 8]: 3.2 ± 0.4 | Thymus wt [1, 8]: 67.5 ± 3.9 | Thymus wt/BW [1, 8]: 2.7 ± 0.2 | Body Weight [1, 9]: 25.7 ± 1.7 | Spleen wt [1, 9]: 62.0 ± 10.2 | Spleen wt/BW [1, 9]: 2.4 ± 0.3 | Thymus wt [1, 9]: 50.8 ± 10.9 | Thymus wt/BW [1, 9]: 2.0 ± 0.3 | Body Weight [1, 10]: 25.2 ± 1.4 | Spleen wt [1, 10]: 89.4 ± 12.3 | Spleen wt/BW [1, 10]: 3.5 ± 0.4 | Thymus wt [1, 10]: 65.6 ± 4.4 | Thymus wt/BW [1, 10]: 2.6 ± 0.2 | Approximate Potency Compared to Fluasterone in Protecting Against DEX-induced Thymic and Splenic Involution ([1]; fluasterone = 1, mice): 1 | rank of activity among steroids tested against DEX-induced thymic and splenic involution ([1]; mice): most active steroid tested | rank of activity among steroids tested against DEX-induced thymic and splenic involution ([1]; mice, listed as fluasterone): most potent compound | lowest reported oral dose which inhibits TPA-promoted skin tumor promotion [2]: 200 mg/kg | lowest effective dose which abolishes TPA-stimulated epidermal hyperplasia [3]: 2.5 to 5 mg/kg
